Assay results as given in ChEMBL document CHEMBL1201862, “PubChem BioAssay data set” (2004).
Activity calls are given as the source filed them.

Legend:
HEK293 [1] = experiment: cells; format: functional, cell-based; details: Homo sapiens
[2] = target: T1, Calpain-2 catalytic subunit (Sus scrofa, UniProt P43367); experiment: pig calpain II inhibitor potency, dose response, biochemical, fluorogenic peptide substrate (AID 1420); format: functional
T1 sequence (P43367 whole entry): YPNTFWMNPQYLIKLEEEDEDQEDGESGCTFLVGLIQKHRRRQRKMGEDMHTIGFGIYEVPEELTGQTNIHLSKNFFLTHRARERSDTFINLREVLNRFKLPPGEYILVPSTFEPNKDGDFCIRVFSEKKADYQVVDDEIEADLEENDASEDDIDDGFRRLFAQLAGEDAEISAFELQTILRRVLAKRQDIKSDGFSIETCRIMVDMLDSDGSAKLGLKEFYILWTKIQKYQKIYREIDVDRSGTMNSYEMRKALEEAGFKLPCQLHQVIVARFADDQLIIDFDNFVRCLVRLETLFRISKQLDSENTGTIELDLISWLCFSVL

HEK293 [3] = experiment: cells; format: functional, cell-based; details: Homo sapiens; remark: listed apart in the source
Procathepsin L = Procathepsin L (Homo sapiens, UniProt P07711); experiment: cathepsin L inhibitors, dose response, counter-screen for M1/M17 aminopeptidase inhibitor project, biochemical, QFRET, 1536-well (AID 2214)
Aspartyl aminopeptidase = Aspartyl aminopeptidase (Plasmodium falciparum 3D7, UniProt Q8I2J3); experiment: Counterscreen for inhibitors of M1 and M17 aminopeptidases: QFRET-based biochemical high throughput dose response assay for inhibitors of the Plasmodium falciparum M18 Aspartyl Aminopeptidase (PFM18AAP). [Related PubChem assays: 1619 (Screening assay (M17LAP inhibitors).), 1445 (Screening assay (M1AAP inhibitors).)]
HEK293 [4] = experiment: NOD2 signaling inhibitors in MDP-stimulated cells, cell-based, uHTS, luminescence (AID 2001); format: functional; details: Homo sapiens
Aminopeptidase N = target: T2, Aminopeptidase N (Plasmodium falciparum FcB1/Columbia, UniProt O96935); experiment: P. falciparum M1AAP inhibitors, biochemical, fluorogenic H-Leu-NHMec substrate, 1536-well (AID 1445); parameters: species or system Plasmodium falciparum 3D7, 3D7
T2 sequence (O96935 whole entry): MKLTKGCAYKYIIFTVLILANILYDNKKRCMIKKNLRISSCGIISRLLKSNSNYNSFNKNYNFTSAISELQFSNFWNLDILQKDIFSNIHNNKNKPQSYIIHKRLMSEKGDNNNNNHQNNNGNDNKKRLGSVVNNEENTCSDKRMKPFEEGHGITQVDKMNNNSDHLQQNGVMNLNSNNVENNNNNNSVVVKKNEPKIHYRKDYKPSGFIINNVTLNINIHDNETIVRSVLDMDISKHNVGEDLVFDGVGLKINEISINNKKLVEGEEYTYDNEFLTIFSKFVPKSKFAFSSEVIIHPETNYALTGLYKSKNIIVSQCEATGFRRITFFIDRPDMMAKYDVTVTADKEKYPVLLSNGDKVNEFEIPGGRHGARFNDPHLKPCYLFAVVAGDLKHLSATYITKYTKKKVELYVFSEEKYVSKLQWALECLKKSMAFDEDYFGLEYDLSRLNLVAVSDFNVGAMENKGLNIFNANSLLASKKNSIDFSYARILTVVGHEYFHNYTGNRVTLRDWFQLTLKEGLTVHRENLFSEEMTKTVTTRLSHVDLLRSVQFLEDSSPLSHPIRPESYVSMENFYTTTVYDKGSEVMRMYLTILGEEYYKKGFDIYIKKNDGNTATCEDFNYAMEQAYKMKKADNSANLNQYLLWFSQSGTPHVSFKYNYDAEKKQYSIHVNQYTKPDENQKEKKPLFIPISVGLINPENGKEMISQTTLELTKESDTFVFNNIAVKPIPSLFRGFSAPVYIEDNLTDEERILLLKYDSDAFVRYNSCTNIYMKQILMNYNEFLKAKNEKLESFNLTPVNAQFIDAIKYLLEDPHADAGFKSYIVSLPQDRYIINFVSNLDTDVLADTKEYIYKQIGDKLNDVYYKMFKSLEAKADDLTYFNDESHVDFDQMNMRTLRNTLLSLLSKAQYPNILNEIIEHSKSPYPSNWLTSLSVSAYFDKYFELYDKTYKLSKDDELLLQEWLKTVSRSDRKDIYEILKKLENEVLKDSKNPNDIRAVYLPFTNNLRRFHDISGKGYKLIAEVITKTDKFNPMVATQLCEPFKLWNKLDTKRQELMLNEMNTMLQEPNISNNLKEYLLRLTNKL

HEK293 [5] = experiment: NOD1 signaling inhibitors, primary screen, cell-based, luminescence, uHTS (AID 1578); format: functional; details: Homo sapiens
Bcl-2-related protein A1 [6] = target: T3, Bcl-2-related protein A1 (Mus musculus, UniProt Q07440); experiment: Bfl-1 binding inhibitors, SAR follow-up, biochemical, fluorescence polarization (AID 1070)
T3 sequence (Q07440 whole entry): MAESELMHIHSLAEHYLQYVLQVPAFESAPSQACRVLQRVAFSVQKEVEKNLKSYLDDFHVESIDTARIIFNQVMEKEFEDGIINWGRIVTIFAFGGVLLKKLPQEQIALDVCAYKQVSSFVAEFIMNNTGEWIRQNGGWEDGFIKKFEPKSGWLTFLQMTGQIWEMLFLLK

[7] = target: Glyceraldehyde-3-phosphate dehydrogenase (Homo sapiens, UniProt P04406)
Bcl-2-related protein A1 [8] = target: T3, Bcl-2-related protein A1; experiment: Bfl-1 inhibitors blocking BH3 peptide binding, confirmation, biochemical, TR-FRET, mouse Bfl-1 (AID 621);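 note: TR-FRET binding of GST-Bfl-1 to FITC-labelled Bid peptide via terbium antibody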
[9] = A High Throughput Confirmatory Assay used to Identify Novel Compounds that Inhibit Mycobacterium Tuberculosis in the absence of Glycerol.; format: functional
[10] = M. tuberculosis H37Rv growth inhibitors, H37Rv strain (AID 1626); format: functional
[11] = target: Protein-tyrosine kinase 2-beta (Homo sapiens, UniProt Q14289);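 note: potency of inhibitors of PYK2 kinase phosphorylation of poly-GT substrate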
[12] = target: Peroxisome proliferator-activated receptor gamma/Nuclear receptor coactivator 1 (Homo sapiens, UniProt P37231); format: functional;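 note: agonist potency as compounds enhance coactivator SRC-1 recruitment to PPARgamma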
[13] = target: 5-hydroxytryptamine receptor 5A (Homo sapiens, UniProt P47898); experiment: Counterscreen for agonists of OPRM1-OPRD1 heterodimerization: luminescence-based cell-based high throughput dose response assay to identify agonists of 5-hydroxytryptamine (serotonin) 5A receptor (HTR5A). [Related pubchem assays (depositor defined):AID504326, AID504355, AID504692, AID504904, AID504905]; format: functional
Prothrombin = Prothrombin (Bos taurus, UniProt P00735); experiment: thrombin inhibition, dose response, biochemical, fluorescence polarization, uHTS hits (AID 602369); format: functional
[14] = target: Peroxisome proliferator-activated receptor gamma/Nuclear receptor coactivator 3 (Homo sapiens, UniProt P37231); format: functional;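 note: agonist potency for raising coactivator recruitment to the receptor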
Chain of Peroxisome proliferator-activated receptor gamma/Nuclear receptor coactivator 3 (P37231 whole entry): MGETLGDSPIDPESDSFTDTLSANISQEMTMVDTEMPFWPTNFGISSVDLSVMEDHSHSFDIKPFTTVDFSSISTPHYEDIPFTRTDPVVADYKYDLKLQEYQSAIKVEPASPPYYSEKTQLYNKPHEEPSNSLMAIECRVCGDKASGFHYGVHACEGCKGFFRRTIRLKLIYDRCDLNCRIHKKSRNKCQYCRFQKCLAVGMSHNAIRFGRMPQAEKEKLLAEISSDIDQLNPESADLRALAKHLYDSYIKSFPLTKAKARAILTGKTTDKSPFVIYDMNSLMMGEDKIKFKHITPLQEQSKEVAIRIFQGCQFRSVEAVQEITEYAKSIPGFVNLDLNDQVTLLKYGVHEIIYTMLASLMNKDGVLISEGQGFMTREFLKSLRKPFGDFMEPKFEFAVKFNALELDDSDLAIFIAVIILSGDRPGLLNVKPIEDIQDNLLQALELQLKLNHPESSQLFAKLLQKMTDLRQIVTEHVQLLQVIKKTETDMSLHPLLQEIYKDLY
Chain of Peroxisome proliferator-activated receptor gamma/Nuclear receptor coactivator 3 (Q9Y6Q9 whole entry, further chain): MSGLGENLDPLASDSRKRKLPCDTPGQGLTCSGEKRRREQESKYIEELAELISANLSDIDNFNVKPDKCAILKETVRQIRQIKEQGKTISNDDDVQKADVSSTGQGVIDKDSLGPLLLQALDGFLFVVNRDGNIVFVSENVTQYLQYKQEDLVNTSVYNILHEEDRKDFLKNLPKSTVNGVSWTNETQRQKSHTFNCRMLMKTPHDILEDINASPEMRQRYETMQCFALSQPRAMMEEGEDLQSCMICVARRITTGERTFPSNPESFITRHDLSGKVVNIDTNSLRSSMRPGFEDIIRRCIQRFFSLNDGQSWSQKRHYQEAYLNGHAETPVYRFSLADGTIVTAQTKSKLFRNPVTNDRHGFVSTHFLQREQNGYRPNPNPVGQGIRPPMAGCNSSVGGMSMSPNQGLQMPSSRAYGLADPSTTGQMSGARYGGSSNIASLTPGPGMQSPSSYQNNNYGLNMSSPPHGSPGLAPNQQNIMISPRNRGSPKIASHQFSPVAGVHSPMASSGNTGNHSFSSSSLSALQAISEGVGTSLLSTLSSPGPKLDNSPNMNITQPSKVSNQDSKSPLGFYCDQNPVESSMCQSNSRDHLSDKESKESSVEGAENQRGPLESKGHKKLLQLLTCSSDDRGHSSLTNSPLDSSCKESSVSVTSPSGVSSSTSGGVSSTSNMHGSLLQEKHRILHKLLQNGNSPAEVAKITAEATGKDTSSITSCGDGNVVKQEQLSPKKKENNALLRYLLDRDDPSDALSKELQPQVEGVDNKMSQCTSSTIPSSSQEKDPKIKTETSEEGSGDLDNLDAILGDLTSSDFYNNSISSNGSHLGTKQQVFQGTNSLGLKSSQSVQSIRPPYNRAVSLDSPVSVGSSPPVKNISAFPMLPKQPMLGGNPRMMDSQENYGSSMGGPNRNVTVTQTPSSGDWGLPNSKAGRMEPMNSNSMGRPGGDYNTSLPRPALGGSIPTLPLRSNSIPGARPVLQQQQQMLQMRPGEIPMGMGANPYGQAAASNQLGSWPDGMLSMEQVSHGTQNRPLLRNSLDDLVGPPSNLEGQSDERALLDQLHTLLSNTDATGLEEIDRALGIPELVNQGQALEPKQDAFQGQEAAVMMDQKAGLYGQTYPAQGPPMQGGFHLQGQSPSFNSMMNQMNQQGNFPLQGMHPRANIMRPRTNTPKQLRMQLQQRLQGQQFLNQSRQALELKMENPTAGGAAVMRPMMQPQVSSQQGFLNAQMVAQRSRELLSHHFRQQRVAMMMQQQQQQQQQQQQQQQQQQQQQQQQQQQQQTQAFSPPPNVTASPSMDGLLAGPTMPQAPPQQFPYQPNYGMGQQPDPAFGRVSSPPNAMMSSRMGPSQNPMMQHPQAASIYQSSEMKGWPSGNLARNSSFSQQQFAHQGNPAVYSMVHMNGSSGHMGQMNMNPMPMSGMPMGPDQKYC

[15] = target: Delta-type opioid receptor (Homo sapiens, UniProt P41143); experiment: Counterscreen for agonists of heterodimerization of the mu 1 (OPRM1) and delta 1 (OPRD1) opioid receptors: Luminescence-based cell-based high throughput dose response assay to identify agonists of OPRD1 homodimerization. [Related pubchem assays (depositor defined):AID504326, AID504355, AID504692, AID504904, AID504905]; format: functional
[16] = inhibitors of intracellular T. cruzi replication, confirmation, NIH3T3 host cells, beta-gal luminescence (AID 2044); format: functional, cell-based;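 note: intracellular parasites grown in NIH/3T3 mouse fibroblasts as host cells; luminescent beta-galactosidase reporter signal from transgenic T. cruzi replicating inside host cells; inhibitors lower the luminescence signal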
[17] = target: 26S proteasome non-ATPase regulatory subunit 14 (Homo sapiens, UniProt O00487); experiment: inhibition of proteasome subunit RPN11 – biochemical, fluorescence polarization, uHTS hits, confirmation (AID 602368); format: functional
[18] = Luminescence Cell-Based Dose Response HTS to Identify Inhibitors of 5'UTR Stem-Loop Driven Prion Protein mRNA Translation in H4 Neuroglioblastoma Cells. [Related pubchem assays: 1827 (Project Summary), 1813 (Primary HTS)]; format: functional
[19] = cytotoxicity toward NIH3T3 fibroblasts, dose response, counter-screen, cell-based, ATP luminescence, mouse fibroblasts (AID 2010); format: functional;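 note: cells exposed to compound for about 90 hours before reading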
[20] = target: Peroxisome proliferator-activated receptor gamma/Nuclear receptor coactivator 2 (Homo sapiens, UniProt P37231); format: functional;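 note: agonist potency for raising coactivator recruitment to the receptor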
Chain of Peroxisome proliferator-activated receptor gamma/Nuclear receptor coactivator 2 (P37231 whole entry): as the sequence (P37231 whole entry) above
Chain of Peroxisome proliferator-activated receptor gamma/Nuclear receptor coactivator 2 (Q15596 whole entry, further chain): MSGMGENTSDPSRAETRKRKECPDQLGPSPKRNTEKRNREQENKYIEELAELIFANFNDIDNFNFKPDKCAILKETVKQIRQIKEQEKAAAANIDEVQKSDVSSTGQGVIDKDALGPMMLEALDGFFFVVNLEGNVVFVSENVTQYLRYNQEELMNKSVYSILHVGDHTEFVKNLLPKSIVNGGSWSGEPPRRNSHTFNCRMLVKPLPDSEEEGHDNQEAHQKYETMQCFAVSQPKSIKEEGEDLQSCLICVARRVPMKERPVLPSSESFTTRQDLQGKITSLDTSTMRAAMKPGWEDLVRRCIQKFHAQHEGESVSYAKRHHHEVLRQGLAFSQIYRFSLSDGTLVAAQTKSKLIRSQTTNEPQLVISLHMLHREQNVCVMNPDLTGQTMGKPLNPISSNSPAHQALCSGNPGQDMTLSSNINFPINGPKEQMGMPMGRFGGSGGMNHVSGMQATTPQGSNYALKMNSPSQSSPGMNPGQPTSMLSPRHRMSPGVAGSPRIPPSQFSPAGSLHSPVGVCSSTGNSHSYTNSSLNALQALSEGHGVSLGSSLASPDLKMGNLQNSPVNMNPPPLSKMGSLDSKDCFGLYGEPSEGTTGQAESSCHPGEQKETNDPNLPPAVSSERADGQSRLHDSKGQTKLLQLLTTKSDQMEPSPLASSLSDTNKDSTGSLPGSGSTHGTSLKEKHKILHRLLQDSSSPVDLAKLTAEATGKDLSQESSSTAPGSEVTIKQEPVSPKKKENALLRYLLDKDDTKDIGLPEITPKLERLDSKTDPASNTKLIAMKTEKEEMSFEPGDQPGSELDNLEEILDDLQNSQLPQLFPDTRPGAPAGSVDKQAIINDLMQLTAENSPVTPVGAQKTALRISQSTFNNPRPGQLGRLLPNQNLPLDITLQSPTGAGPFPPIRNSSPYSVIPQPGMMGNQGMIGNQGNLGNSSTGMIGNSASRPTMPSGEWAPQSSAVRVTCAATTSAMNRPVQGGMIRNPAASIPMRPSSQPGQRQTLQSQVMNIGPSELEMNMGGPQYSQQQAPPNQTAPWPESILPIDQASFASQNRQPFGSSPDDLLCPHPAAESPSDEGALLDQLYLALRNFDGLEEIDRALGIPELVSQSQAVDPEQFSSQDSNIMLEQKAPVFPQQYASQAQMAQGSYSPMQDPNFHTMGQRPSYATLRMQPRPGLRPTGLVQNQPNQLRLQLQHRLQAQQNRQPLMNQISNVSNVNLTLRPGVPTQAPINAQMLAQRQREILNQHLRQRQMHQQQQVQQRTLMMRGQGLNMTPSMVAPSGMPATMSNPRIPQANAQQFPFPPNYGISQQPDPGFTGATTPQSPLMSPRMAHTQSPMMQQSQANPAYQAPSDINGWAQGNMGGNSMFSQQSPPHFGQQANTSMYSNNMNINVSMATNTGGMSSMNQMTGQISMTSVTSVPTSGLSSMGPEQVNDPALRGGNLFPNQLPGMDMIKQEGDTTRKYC

Mu-type opioid receptor = Mu-type opioid receptor (Homo sapiens, UniProt P35372); experiment: Counterscreen for agonists of heterodimerization of the mu 1 (OPRM1) and delta 1 (OPRD1) opioid receptors: Luminescence-based cell-based high throughput dose response assay to identify agonists of OPRM1 homodimerization.; format: functional;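 note: U2OS cells expressing OPRM1 and beta-arrestin as split beta-galactosidase partners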
[21] = target: 72 kDa type IV collagenase (Homo sapiens, UniProt P08253); experiment: Dose Response validation of uHTS RPN11 inhibitor hits using a MMP-2 Fluorescence assay.; format: functional
Chain of 72 kDa type IV collagenase (P08253 whole entry): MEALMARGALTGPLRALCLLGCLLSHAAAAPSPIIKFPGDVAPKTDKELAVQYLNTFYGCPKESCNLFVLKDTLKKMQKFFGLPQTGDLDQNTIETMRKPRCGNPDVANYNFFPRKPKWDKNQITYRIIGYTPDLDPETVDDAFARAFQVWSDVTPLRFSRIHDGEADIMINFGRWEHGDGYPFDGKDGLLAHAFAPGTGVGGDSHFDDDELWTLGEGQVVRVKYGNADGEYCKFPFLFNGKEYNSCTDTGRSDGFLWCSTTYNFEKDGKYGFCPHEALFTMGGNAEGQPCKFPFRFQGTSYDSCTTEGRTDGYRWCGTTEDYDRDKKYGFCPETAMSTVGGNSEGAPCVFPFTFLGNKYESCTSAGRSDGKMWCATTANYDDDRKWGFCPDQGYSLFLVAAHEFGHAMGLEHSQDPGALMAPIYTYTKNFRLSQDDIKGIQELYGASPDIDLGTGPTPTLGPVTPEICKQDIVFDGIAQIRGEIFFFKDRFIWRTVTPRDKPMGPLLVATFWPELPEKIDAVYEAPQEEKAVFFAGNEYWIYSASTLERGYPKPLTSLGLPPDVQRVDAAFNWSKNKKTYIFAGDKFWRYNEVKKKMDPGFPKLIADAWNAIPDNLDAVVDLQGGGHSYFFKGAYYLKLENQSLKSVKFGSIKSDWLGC

Galanin receptor type 2 = Galanin receptor type 2 (Homo sapiens, UniProt O43603); experiment: Dose Response cell-based high-throughput screening assay to identify antagonists of galanin receptor 2 (GALR2). [Related pubchem assays: 828, 866 ]; format: functional
[22] = target: T4, Heat shock factor protein 1 (Mus musculus, UniProt P38532); experiment: inhibition of MG132-induced HSE-luciferase signal, confirmation, cell-based, NIH3T3, luminescence, dose retest (AID 2382); format: functional;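 note: NIH3T3 fibroblasts with HSF1-driven luciferase reporter stressed by proteasome inhibitor MG132; luminescence from HSF1-driven luciferase expression after 8 hours of MG132 stress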
T4 sequence (P38532 whole entry): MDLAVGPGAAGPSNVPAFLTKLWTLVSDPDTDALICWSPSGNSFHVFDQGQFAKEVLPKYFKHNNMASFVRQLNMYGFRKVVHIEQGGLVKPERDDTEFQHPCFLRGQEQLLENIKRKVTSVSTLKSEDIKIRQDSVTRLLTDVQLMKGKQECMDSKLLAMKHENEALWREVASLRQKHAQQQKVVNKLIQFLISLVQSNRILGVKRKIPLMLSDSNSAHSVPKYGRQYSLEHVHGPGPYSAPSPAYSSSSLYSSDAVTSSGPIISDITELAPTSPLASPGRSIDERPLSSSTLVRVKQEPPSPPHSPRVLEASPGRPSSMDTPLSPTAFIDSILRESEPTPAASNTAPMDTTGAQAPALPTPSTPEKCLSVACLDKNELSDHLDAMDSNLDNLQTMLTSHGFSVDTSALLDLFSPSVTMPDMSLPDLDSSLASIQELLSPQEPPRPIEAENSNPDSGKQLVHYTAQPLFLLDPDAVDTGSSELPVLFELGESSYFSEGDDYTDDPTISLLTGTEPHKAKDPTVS

cells = format: functional, cell-based; details: HEK-CNG
Galanin receptor type 3 = Galanin receptor type 3 (Homo sapiens, UniProt O60755); experiment: Fluorescence-based cell-based primary high throughput dose response assay to identify antagonists of the Galanin Receptor 3 (GalR3).; format: functional
[23] = target: COUP transcription factor 2 (Homo sapiens, UniProt P24468); experiment: Luminescence-based cell-based high throughput dose response assay to identify inhibitors of COUP-TFII (NR2F2).; format: functional;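 note: HEK293 cells transiently cotransfected with COUP-TFII expression vector and reporter; luciferase reporter luminescence driven by COUP-TFII from the pX2-168 reporter plasmid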
[24] = target: Sphingosine 1-phosphate receptor 2 (Homo sapiens, UniProt O95136); experiment: Dose Response Cell Based Assay for Agonists of the S1P2 Receptor of Purchased Analogues. [Related pubchem assays: 729, 843, 854, 736 ]; format: functional
[25] = target: T5, E3 ubiquitin-protein ligase XIAP (Homo sapiens, UniProt P98170); experiment: Counter Screen using XIAP-Bir3 for Chemical Antagonists of Bir1/2 domains of IAP-family anti-apoptotic proteins. [Related pubchem assays (depositor defined):AID1018, AID1449, AID1514, AID1638, AID1749, AID1750, AID488957, AID488963]
T5 sequence (P98170 whole entry): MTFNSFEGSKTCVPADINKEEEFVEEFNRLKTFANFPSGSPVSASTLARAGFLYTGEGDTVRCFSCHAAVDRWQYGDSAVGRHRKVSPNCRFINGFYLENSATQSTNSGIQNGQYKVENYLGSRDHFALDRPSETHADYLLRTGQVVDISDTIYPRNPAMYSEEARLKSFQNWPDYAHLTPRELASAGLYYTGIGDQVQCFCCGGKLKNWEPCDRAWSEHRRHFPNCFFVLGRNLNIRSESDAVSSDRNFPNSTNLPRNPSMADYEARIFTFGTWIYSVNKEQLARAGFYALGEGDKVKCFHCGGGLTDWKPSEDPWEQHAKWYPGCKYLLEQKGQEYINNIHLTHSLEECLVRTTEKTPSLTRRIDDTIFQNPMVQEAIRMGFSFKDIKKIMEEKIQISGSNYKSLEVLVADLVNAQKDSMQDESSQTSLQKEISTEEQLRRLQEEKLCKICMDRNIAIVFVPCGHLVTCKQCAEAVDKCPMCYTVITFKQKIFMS

[26] = target: T5, E3 ubiquitin-protein ligase XIAP; experiment: XIAP antagonists, biochemical, IAP family, fluorescence polarization (AID 1018); format: functional
14-3-3 protein gamma = 14-3-3 protein gamma (Homo sapiens, UniProt P61981); experiment: modulators of 14-3-3 gamma client binding – dose response (AID 711); format: functional

Structure (SMILES): O=C(O)C(Cc1ccccc1)N1C(=O)/C(=C/c2cccc3ccccc23)SC1=S (stereo not given)
- IC50 (HEK293 [1]): > 20 µM (inactive)
- IC50 [2]: > 50 µM (not active)
- IC50 (HEK293 [3]): > 20 µM (inactive)
- IC50 (Procathepsin L): 28.4 µM (not active)
- IC50 (Aspartyl aminopeptidase): > 73.5 µM (not active)
- IC50 (HEK293 [4]): 18.5 µM (inactive)
- IC50 (Aminopeptidase N): 14.9 µM (active)
- EC50 (HEK293 [5]): 16.5 µM (active)

Structure (SMILES): O=C1C(Cl)=C(N2CCN(CCOCCO)CC2)C(=O)N1c1ccnc(Cl)c1
- IC50 (Bcl-2-related protein A1 [6]): 33.2 µM (active)
- IC50 [7]: > 100 µM (not active)
- IC50 (Bcl-2-related protein A1 [8]): 20.5 µM (active)

Structure (SMILES): CC(Oc1cc2oc(=O)c3c(c2cc1Cl)CCCC3)C(=O)NCc1ccccn1 (stereo not given)
- IC50 [9]: > 100 µM (active)

Structure (SMILES): Fc1ccc(-c2nnc(CSc3nnc(-c4cccs4)o3)o2)cc1
- IC50 [10]: > 100 µM (active)

Structure (SMILES): O=C(COc1ccc(/C=N/NC(=O)c2cc3ccccc3o2)cc1Br)Nc1ccccc1
- IC50 [11]: > 2.57 µM (not active)
- EC50 [12]: > 79.4 µM (not active)
- EC50 [13]: > 92.5 µM (inactive)
- IC50 (Prothrombin): 76.3 µM (active)
- EC50 [14]: > 79.4 µM (not active)
- EC50 [15]: > 92.5 µM (inactive)
- EC50 [16]: 1.97 µM (active)
- IC50 [17]: 12.4 µM (active)
- EC50 [18]: 9.11 µM (inconclusive)
- EC50 [19]: > 60 µM (not active)
- EC50 [20]: > 79.4 µM (not active)
- EC50 (Mu-type opioid receptor): > 92.5 µM (inactive)
- IC50 [21]: > 100 µM (inactive)

Structure (SMILES): Cc1sc2ncnc(NCCc3ccc(S(N)(=O)=O)cc3)c2c1C
- IC50 (Galanin receptor type 2): > 42 µM (not active)
- EC50 [22]: > 195 µM (not active)
- EC50 (cells): > 29.9 µM (inactive)
- IC50 (Galanin receptor type 3): 2.95 µM (active)
- IC50 [23]: 4.23 µM (active)

Structure (SMILES): Cc1nn(CC(=O)c2cc(C)n(Cc3ccccc3)c2C)c(C)c1[N+](=O)[O-]
- EC50 [24]: > 30 µM (not active)

Structure (SMILES): CCn1c(CSc2nnc(-c3cccnc3)n2-c2ccccc2C)nc2cc(C(=O)O)ccc21
- IC50 [25]: > 1.56 µM (inactive)
- IC50 [26]: > 0.781 µM (not active)
- IC50 (14-3-3 protein gamma): < 0.781 µM (active)
